Experimental data from US6458391B1, “Compositions comprising oleum Melaleuca” (Safe ′N Sound Solutions, Inc., priority 1998, dated 2002).

Test: Toxicity and tissue irritation
Conditions: 1,8-cineole content of the oil

SMILES: CC12CCC(CC1)C(C)(C)O2 [1,8-cineole]
- concentration that produces tissue irritation: above 10%
